Measured values reported in patent publication US5663331A, “Cephalosporin compounds” (Il-Dong Pharm. Co., Ltd., priority 1992, dated 1997).
Values after ≈ are worked out from the molar mass of the structure shown.

Legend:
Format in all cases: cell-based
[1] = system: Bacillus subtilis ATCC 6633; test: MIC, two-fold dilution method, Bacillus subtilis ATCC 6633; conditions: 10^6 CFU per ml, 37° C., 18 to 20 hours; for Antibacterial Activity (MIC): Muller Hinton Broth; for MIC: ATCC6633, Muller Hinton Broth, read-out: Antibacterial Activity (MIC)
Protocol: (§1) In order to illustrate the usefulness of the invented compounds, the minimal inhibitory concentrations-(MIC) thereof against standard strains were determined and compared with Cefotaxime, a known compound. Also, the in vitro antibacterial activity was determined by a two-fold dilution method as described below: That is, the two-fold serial dilutions of the compound were made and dispersed in Muller Hinton Broth medium. Standard test strain which had the 10^6 CFU per ml was inoculated on the medium, and was incubated at 37° C. for 18 to 20 hours.

[2] = system: Staphylococcus aureus ATCC 65389; test: MIC, two-fold dilution method, Staphylococcus aureus ATCC 65389; conditions: 10^6 CFU per ml, 37° C., 18 to 20 hours; for Antibacterial Activity (MIC): Muller Hinton Broth; for MIC: ATCC65389, Muller Hinton Broth, read-out: Antibacterial Activity (MIC)
Protocol: as §1

[3] = system: Staphylococcus epidermidis ATCC 12228; test: MIC, two-fold dilution method, Staphylococcus epidermidis ATCC 12228; conditions: 10^6 CFU per ml, 37° C., 18 to 20 hours; for Antibacterial Activity (MIC): Muller Hinton Broth; for MIC: ATCC12228, Muller Hinton Broth, read-out: Antibacterial Activity (MIC)
Protocol: as §1

[4] = system: Streptococcus faecalis ATCC 10541; test: MIC, two-fold dilution method, Streptococcus faecalis ATCC 10541; conditions: 10^6 CFU per ml, 37° C., 18 to 20 hours; for Antibacterial Activity (MIC): Muller Hinton Broth; for MIC: Enterococcus faecalis, ATCC10541, Muller Hinton Broth, read-out: Antibacterial Activity (MIC)
Protocol: as §1

[5] = system: Pseudomonas aeurginosa NCTC 10490; test: MIC, two-fold dilution method, Pseudomonas aeurginosa NCTC 10490; conditions: 10^6 CFU per ml, 37° C., 18 to 20 hours; for Antibacterial Activity (MIC): Muller Hinton Broth; for MIC: NCTC10490, Muller Hinton Broth, read-out: Antibacterial Activity (MIC)
Protocol: as §1

[6] = system: Esherichia coli ATCC 25922; test: MIC, two-fold dilution method, Esherichia coli ATCC 25922; conditions: Muller Hinton Broth, 10^6 CFU per ml, 37° C., 18 to 20 hours; for MIC: read-out: Antibacterial Activity (MIC)
Protocol: as §1

[7] = system: Klebsiella pneumoniae ATCC 10031; test: MIC, two-fold dilution method, Klebsiella pneumoniae ATCC 10031; conditions: 10^6 CFU per ml, 37° C., 18 to 20 hours; for Antibacterial Activity (MIC): Muller Hinton Broth; for MIC: ATCC10031, Muller Hinton Broth, read-out: Antibacterial Activity (MIC)
Protocol: as §1

Row | Antibacterial Activity (MIC) [1] [µg/mL] | Antibacterial Activity (MIC) [2] [µg/mL] | Antibacterial Activity (MIC) [3] [µg/mL] | Antibacterial Activity (MIC) [4] [µg/mL] | Antibacterial Activity (MIC) [5] [µg/mL] | Antibacterial Activity (MIC) [6] [µg/mL] | Antibacterial Activity (MIC) [7] [µg/mL] | MIC [1] [µg/mL] | MIC [2] [µg/mL] | MIC [3] [µg/mL] | MIC [4] [µg/mL] | MIC [5] [µg/mL] | MIC [6] [µg/mL] | MIC [7] [µg/mL] | SMILES
1 | 0.1 | 0.1 | 0.2 | 0.05 | 0.78 | 0.78 | 0.1 |  |  |  |  |  |  |  | CO/N=C(\C(=O)NC1C(=O)N2C(C(=O)[O-])=C(CSc3cc[n+](C)c4cc(N5CCNCC5C)c(F)cc34)CSC12)c1csc(N)n1 (centres unmarked) [Compound I-4, 7-[(Z)-2-(2-aminothiazol-4-yl)-2-(methoxyimino)acetamido]-3-(1-methyl-6-fluoro-7-(2-methyl)piperazinylquinolinium-4-yl]thiomethyl-3-cephem-4-carboxylate]
2 |  |  |  |  |  |  |  | 0.78 (≈ 1.08 µM) | 0.78 (≈ 1.08 µM) | 0.39 (≈ 0.538 µM) | 0.2 (≈ 0.276 µM) | 6.25 (≈ 8.62 µM) | 12.5 (≈ 17.2 µM) | 6.25 (≈ 8.62 µM) | C#CCO/N=C(\C(=O)NC1C(=O)N2C(C(=O)[O-])=C(CSc3cc[n+](CC)c4cc(N5CCN(C)CC5)c(F)cc34)CSC12)c1csc(N)n1 (centres unmarked) [Compound I-46, 7-[(Z)-2-(2-aminothiazol-4-yl)-2-(propargyloxyimino)acetamido]-3-[1-ethyl-6-fluoro-7-(N-methylpiperazinyl)quinolinium-4-yl]thiomethyl-3-cephem-4-carboxylate]
3 | 0.39 | 0.78 | 1.56 | 0.39 | 1.56 | 1.56 | 0.78 |  |  |  |  |  |  |  | C=CCO/N=C(\C(=O)NC1C(=O)N2C(C(=O)[O-])=C(CSc3cc[n+](CC=C)c4cc(N5CCNCC5C)c(F)cc34)CS[C@H]12)c1csc(N)n1 (some centres unmarked) [Compound I-36, 7-[(Z)-2-(2-aminothiazol-4-yl)-2-(allyloxyimino)acetamido]-3-[1-allyl-6-fluoro-7-(2-methylpiperazinyl)quinolinium-4-yl]thiomethyl-3-cephem4-carboxylate]
4 |  |  |  |  |  |  |  | 3.13 (≈ 3.98 µM) | 1.56 (≈ 1.98 µM) | 1.56 (≈ 1.98 µM) | 0.39 (≈ 0.496 µM) | 1.56 (≈ 1.98 µM) | 3.13 (≈ 3.98 µM) | 3.13 (≈ 3.98 µM) | CCN1CCN(c2cc3c(cc2F)c(SCC2=C(C(=O)[O-])N4C(=O)C(NC(=O)/C(=N\OC(C)(C)C(=O)O)c5csc(N)n5)C4SC2)cc[n+]3CC)CC1 (centres unmarked) [Compound I-61, 7-[(Z)-2-(2-aminothiazol-4-yl)-2-(2-carboxyprop-2-oxyimino)acetamido]-3-[1-ethyl-6-fluoro-7-(1-ethylpiperazinyl)quinolinium-4-yl]thiomethyl-3-cephem-4-carboxylate]
5 | 0.39 | 0.2 | 0.2 | 0.2 | 1.56 |  | 0.78 |  |  |  |  |  |  |  | C=CCO/N=C(\C(=O)NC1C(=O)N2C(C(=O)[O-])=C(CSc3cc[n+](C4CC4)c4cc(N5CCNCC5C)c(F)cc34)CS[C@H]12)c1csc(N)n1 (some centres unmarked) [Compound I-28, 7-[(Z)-2-(2-aminothiazol-4-yl)-2-(allyloxyimino)acetamido]-3-[1-cyclopropyl-6-fluoro-7-(2-methylpiperazinyl)quinolinium-4-yl]thiomethyl-3-cephem-4-carboxylate]
6 |  |  |  |  |  |  |  | 0.1 (≈ 0.138 µM) | 0.2 (≈ 0.275 µM) | 0.78 (≈ 1.07 µM) | 0.39 (≈ 0.537 µM) | 1.56 (≈ 2.15 µM) | 1.56 (≈ 2.15 µM) | 0.39 (≈ 0.537 µM) | C=CC[n+]1ccc(SCC2=C(C(=O)[O-])N3C(=O)C(NC(=O)/C(=N\OC)c4csc(N)n4)C3SC2)c2cc(F)c(N3CCN(CC)CC3)cc21 (centres unmarked) [Compound I-15, 7-[(Z)-2(2-aminothiazol-4-yl)-2-(methoxyimino)acetamido]-3-[1-allyl-6-fluoro-7-(1-ethylpiperazinyl)quinolinium-4-yl]thiomethyl-3-cephem-4-carboxylate]
7 |  |  |  |  |  |  |  | 0.1 (≈ 0.141 µM) | 0.2 (≈ 0.281 µM) | 0.78 (≈ 1.1 µM) | 0.39 (≈ 0.549 µM) | 1.56 (≈ 2.19 µM) | 3.13 (≈ 4.4 µM) | 0.78 (≈ 1.1 µM) | C#CCO/N=C(\C(=O)NC1C(=O)N2C(C(=O)[O-])=C(CSc3cc[n+](CC)c4cc(N5CCNCC5)c(F)cc34)CS[C@H]12)c1csc(N)n1 (some centres unmarked) [Compound I-45, 7-[(Z)-2-(2-aminothiazol-4-yl)-2-(propargyloxyimino)acetamido]-3-(1-ethyl-6-fluoro-7-piperazinylquinolinium-4-yl)thiomethyl-3-cephem-4-carboxylate]
8 | 0.1 | 0.2 | 0.2 | 0.2 | 1.56 |  |  |  |  |  |  |  |  |  | CO/N=C(\C(=O)NC1C(=O)N2C(C(=O)[O-])=C(CSc3cc[n+](C)c4cc(-n5cnc(C)c5)c(F)cc34)CSC12)c1csc(N)n1 (centres unmarked) [Compound I-18, 7-[(Z)-2-(2-aminothiazol-4-yl)-2-(methoxyimino)acetamido]-3-[1-methyl-6-fluoro-7-(4-methylimidazolyl)quinolinium-4-yl]thiomethyl-3-cephem-4-carboxylate]
9 | 0.39 | 1.56 | 1.56 | 0.39 | 1.56 |  | 1.56 |  |  |  |  |  |  |  | CC[n+]1ccc(SCC2=C(C(=O)[O-])N3C(=O)C(NC(=O)/C(=N\OC(C)(C)C(=O)O)c4csc(N)n4)[C@H]3SC2)c2cc(F)c(-n3ccnc3)cc21 (some centres unmarked) [Compound I-65, 7-[(Z)-2-(2-aminothiazol-4-yl)-2-(2-carboxyprop-2-oxyimino)acetamido]-3-(1-ethyl-6-fluoro-7-imidazolylquinolinium-4-yl)thiomethyl-3-cephem-4-carboxylate]
10 |  |  |  |  |  |  |  | 0.2 (≈ 0.276 µM) | 0.39 (≈ 0.538 µM) | 0.2 (≈ 0.276 µM) | 0.2 (≈ 0.276 µM) | 0.2 (≈ 0.276 µM) |  | 0.78 (≈ 1.08 µM) | C#CCO/N=C(\C(=O)NC1C(=O)N2C(C(=O)[O-])=C(CSc3cc[n+](C)c4cc(N5CCN(CC)CC5)c(F)cc34)CSC12)c1csc(N)n1 (centres unmarked) [Compound I-39]
11 |  |  |  |  |  |  |  | 0.2 (≈ 0.266 µM) | 0.2 (≈ 0.266 µM) | 0.2 (≈ 0.266 µM) | 0.2 (≈ 0.266 µM) | 0.78 (≈ 1.04 µM) |  | 0.39 (≈ 0.518 µM) | C=CCO/N=C(\C(=O)NC1C(=O)N2C(C(=O)[O-])=C(CSc3cc[n+](C4CC4)c4cc(N5CCN(CC)CC5)c(F)cc34)CSC12)c1csc(N)n1 (centres unmarked) [Compound I-27]
12 | 0.39 | 3.13 | 1.56 | 0.39 | 1.56 |  | 1.56 |  |  |  |  |  |  |  | CC[n+]1ccc(SCC2=C(C(=O)[O-])N3C(=O)C(NC(=O)/C(=N\OC(C)(C)C(=O)O)c4csc(N)n4)[C@H]3SC2)c2cc(F)c(N3CCNCC3)cc21 (some centres unmarked) [Compound I-53, 7-[(Z)-2-(2-aminothiazol-4-yl)-2-(2-carboxyprop-2-oxyimino)acetamido]-3-(1-ethyl-6-fluoro-7-piperazinylquinolinium-4-yl)thiomethyl-3-cephem-4-carboxylate]
13 |  |  |  |  |  |  |  | 0.2 (≈ 0.287 µM) | 0.39 (≈ 0.56 µM) | 0.78 (≈ 1.12 µM) | 0.2 (≈ 0.287 µM) | 0.2 (≈ 0.287 µM) |  | 0.78 (≈ 1.12 µM) | C#CCO/N=C(\C(=O)NC1C(=O)N2C(C(=O)[O-])=C(CSc3cc[n+](C)c4cc(N5CCNCC5)c(F)cc34)CS[C@H]12)c1csc(N)n1 (some centres unmarked) [Compound I-37, 7-[(Z)-2-(2-aminothiazol-4-yl)-2-(propargyloxyimino)acetamido]-3-(1-methyl-6-fluoro-7-piperazinylquinolinium-4-yl)thiomethyl-3-cephem-4-carboxylate]
14 |  |  |  |  |  |  |  | 0.78 (≈ 1.1 µM) | 0.78 (≈ 1.1 µM) | 0.39 (≈ 0.549 µM) | 0.2 (≈ 0.281 µM) | 0.78 (≈ 1.1 µM) |  | 3.13 (≈ 4.4 µM) | C#CCO/N=C(\C(=O)NC1C(=O)N2C(C(=O)[O-])=C(CSc3cc[n+](C)c4cc(N5CCN(C)CC5)c(F)cc34)CSC12)c1csc(N)n1 (centres unmarked) [Compound I-38, 7-[(Z)-2-(2-aminothiazol-4-yl)-2-(propargyloxyimino)acetamido]-3-[1-methyl-6-fluoro-7-(N-methylpiperazinyl)quinolinium-4-yl]thiomethyl-3-cephem-4-carboxylate]
15 | 0.2 | 0.39 | 0.1 | 0.2 | 0.2 |  | 0.78 |  |  |  |  |  |  |  | C#CCO/N=C(\C(=O)NC1C(=O)N2C(C(=O)[O-])=C(CSc3cc[n+](C)c4cc(N5CCNCC5C)c(F)cc34)CS[C@H]12)c1csc(N)n1 (some centres unmarked) [Compound I-40, 7-[(Z)-2-(2-aminothiazol-4-yl)-2-(propargyloxyimino)acetamido]-3-[1-methyl-6-fluoro-7-(2-methylpiperazinyl)quinolinium-4-yl]thiomethyl-3-cephem-4-carboxylate]
